Reference: patent publication US20230089557A1, “METHODS OF TREATING DLBCL USING BTK INHIBITORS AND COMBINATIONS THEREOF” (BEIGENE SWITZERLAND GMBH, priority 2020, published 2023)

How the values were obtained:
[1] = tested on: DLBCL patient-derived xenografted (PDX) models; assay: Compound 1 efficacy (TGI) in DLBCL PDX models, GCB vs non-GCB; format: in vivo, mice; details: p.o. 7.5 mg/kg BID
Text: DLBCL patient-derived xenografted (PDX) models were established in immunodeficient NCG (NOD-Prkdcem26Cd52Il2rgem26Cd22/NjuCrl) mice. These models were classified into GCB and non-GCB subgroups based on immunohistochemistry (IHC) staining using Hans algorithm (Hans, C. P., et al., Blood, 2004. 103 (1): p. 275-282). For efficacy studies, tumor tissues were inoculated subcutaneously into NCG mice. When tumors reached 100-200 mm^3, mice were randomized into each group with 7-10 mice/group based on tumor volume. Compound 1 was formulated with 0.5% methyl cellulose as vehicle and treatment was started on the day of randomized grouping. Compound 1 was administrated p.o., 7.5 mg/(kg body weight), BID. Tumor volumes were measured twice weekly in two dimensions using a caliper, and the volume were expressed in mm^3 using the formula:
V=0.5(a×b^2) where a and b are the long and short diameters of the tumor, respectively.
Tumor growth inhibition (TGI) was calculated using the following formula:
% TGI=100×[1−(treatmentvt−treatmentv0)/(vehiclevt−Vehiclev0)]
Treatmentvt=tumor volume of treatment group at time t.
treatmentv0=tumor volume of treatment group at time of treatment started.
Vehiclevt=tumor volume of vehicle group at time t.
Vehiclev0=tumor volume of vehicle group at time of treatment started.
P value was calculated using two tails t test.

R/R non-GCB DLBCL = assay: Four Compound 1 studies pooled (monotherapy and combination), response by BCL2/MYC expression; format: in vivo, human; details: for BOR / BOR (responders/patients) / OS / PFS: mono- and combination therapies pooled; for overall survival / progression-free survival / ORR / ORR (responders/patients): two monotherapies and two combination therapies
Method: A total of 121 patients with R/R non-GCB DLBCL were recruited in four Compound 1 treatment studies that were conducted at a similar time period. Two of the four studies were Compound 1 monotherapy (n=79) and two were Compound 1 combined with an anti-CD20 antibody therapy (n=42). Similar inclusion and exclusion criteria and response evaluation criteria were used across all studies. Fifty-six non-GCB patients were further subtyped by gene expression profiling (GEP) using the HTG EdgeSeq DLBCL Cell of Origin Assay. The expression of approximately 90 lymphoma-associated genes from the HTG GEP assay were analyzed by R package limma for correlation with response to Compound 1 treatment. Seventy-seven patient samples were tested by next-generation sequencing (NGS) with a panel of genes. Chi-square test was used to evaluate the correlation between mutations and the objective response rate (ORR).
Monotherapy schedule 1: Compound 1 was administered orally every day at 160 mg twice daily (BID) in 28-day cycles in patients with R/R non-GCB DLBCL
Monotherapy schedule 2: Compound 1 was administered orally every day in each cycle at 160 mg BID in 28-day cycles in patients with R/R non-GCB DLBCL.
Combination therapy schedule 1: Compound 1 was administered orally every day in each cycle at 160 mg BID in 28-day cycles, in combination with obinutuzumab, in patients with R/R non-GCB DLBCL. Obinutuzumab was administered for up to 6 cycles consistent with the U.S. label regimen (100 mg at Day 1 Cycle 1, 1000 mg at Day 8 and Day 15, 900 mg at Day 2 Cycle 1 followed by 1000 mg on day one of cycles 2-6).
Combination therapy schedule 2: Compound 1 was administrated orally every day in each cycle at 160 mg BID in 28-day cycles, in combination with rituximab, in patients with R/R non-GCB DLBCL. And, rituximab was administered at 375 mg/m2 intravenously on Cycle 1 Days 1, 8, 15, 22, and on Day 1 of Cycles 4, 6, 8, 10. Compound 1 was administered at least 30 minutes prior to the initiation of the rituximab infusion.
A total of 121 patients with non-GCB DLBCL were included for response evaluation. 79 patients were subjected to Compound 1 monotherapies (Monotherapy Schedule 1 or 2), and 42 patients were subjected to Compound 1 plus anti-CD20 antibody Combination therapy (Combination therapy schedule 1 or 2).
56 non-GCB patients were further subtyped by gene expression profiling (GEP) using the HTG EdgeSeq DLBCL Cell of Origin Assay. The expression of approximately 90 lymphoma-associated genes from the HTG GEP assay were analyzed by R package limma for correlation with response to zanubrutinib treatment.

[2] = MYC and BCL2 double expressor (DE) patients

C=CC(=O)N1CCC([C@@H]2CCNc3c(C(N)=O)c(-c4ccc(Oc5ccccc5)cc4)nn32)CC1 [Compound 1, (S)-7-(1-acryloylpiperidin-4-yl)-2-(4-phenoxyphenyl)-4,5,6,7-tetra-hydropyrazolo[1,5-a]pyrimidine-3-carboxamide]
TGI (mean±SD) ([1]; GCB subtype PDX models): 25.5±11.96%
TGI (mean±SD) ([1]; non-GCB DLBCL PDX models): 63.60±42.92%
BOR (R/R non-GCB DLBCL; BCL2-high patients): 57%
BOR (responders/patients) (R/R non-GCB DLBCL; BCL2-high patients): 16/28
OS (R/R non-GCB DLBCL; BCL2-high patients): 10 m
PFS (R/R non-GCB DLBCL; BCL2-high patients): 5.3 m
BOR (R/R non-GCB DLBCL; BCL2-low patients): 21%
BOR (responders/patients) (R/R non-GCB DLBCL; BCL2-low patients): 6/28
OS (R/R non-GCB DLBCL; BCL2-low patients): 6 m
PFS (R/R non-GCB DLBCL; BCL2-low patients): 2.8 m
overall survival (R/R non-GCB DLBCL; DE patients): 10 months
progression-free survival (R/R non-GCB DLBCL; DE patients): 5.4 months
ORR (R/R non-GCB DLBCL; [2]): 61%
ORR (responders/patients) (R/R non-GCB DLBCL; [2]): 11/18
BOR (R/R non-GCB DLBCL; MYC-high patients): 46%
BOR (responders/patients) (R/R non-GCB DLBCL; MYC-high patients): 13/28
OS (R/R non-GCB DLBCL; MYC-high patients): 10 m
PFS (R/R non-GCB DLBCL; MYC-high patients): 5.4 m
BOR (R/R non-GCB DLBCL; MYC-low patients): 32%
BOR (responders/patients) (R/R non-GCB DLBCL; MYC-low patients): 9/28
OS (R/R non-GCB DLBCL; MYC-low patients): 7 m
PFS (R/R non-GCB DLBCL; MYC-low patients): 2.9 m
ORR (R/R non-GCB DLBCL; non-DE patients): 29%
ORR (responders/patients) (R/R non-GCB DLBCL; non-DE patients): 11/38
overall survival (R/R non-GCB DLBCL; non-DE patients): 7 months
progression-free survival (R/R non-GCB DLBCL; non-DE patients): 3.6 months
